Assay in all cases: NCI tumour cell line growth inhibition, 48 h
In experiment [1] the test system is CAKI-1 renal.
Experiment [2] relates to MCF7 breast.
Experiment [3] concerns COLO 205 colon.
The subject of experiment [4] is HT29 colon.
The test system of experiment [5] is MALME-3M melanoma.
Experiment [6] concerns EKVX NSCLC.
For experiment [7], the system named is HCC-2998 colon.
The subject of experiment [8] is LOX IMVI melanoma.
Experiment [9] concerns M14 melanoma.
Experiment [10] deals with NCI-H460 lung.

Molecules are shown by their SMILES.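 A five-concentration, 48-hour dose response in 96-well plates underlies each endpoint, interpolated linearly between surrounding concentrations. GI50: concentration for 50% inhibition of growth. TGI: total growth inhibition.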 Bounds are passed on as bounds.

With `C#CCOC(=O)/C=C/C(=O)Oc1ccc2c(C)cc(=O)oc2c1`, the GI50 in experiment [1], in [2], in experiment [3], in [4], in experiment [5] and in [6] was above 100 µM throughout. For the same compound, the GI50 in experiment [7] was 40.8 µM; in experiment [8] it was above 100 µM; in experiment [9], above 100 µM; in experiment [10] it was above 100 µM. The TGI in experiment [1], in experiment [2], in [3], in [4], in [5] and in [6] was above 100 µM in each case. Further, the TGI in experiment [7], in experiment [8], in experiment [9] and in experiment [10] was above 100 µM each time.

On to `O=C(c1ccccc1)C1OC1C(=O)c1ccccc1` (centres undefined), for which the GI50 in experiment [1] is 2.82 µM; in experiment [2], 2.34 µM; in experiment [3] it was 4.94 µM; in [4] it was 3.19 µM; in experiment [5], 3.24 µM; in experiment [6] it was 6.68 µM. Also, the GI50 in [7] is 2.94 µM; in experiment [8], 2.75 µM; in experiment [9], 2.78 µM; in experiment [10] it was 3.93 µM. Further, the TGI is 23.4 µM in [1]; 14.7 µM in experiment [2]; 15.4 µM in experiment [3]; 13.2 µM in experiment [4]; 66 µM in [5]; above 100 µM in [6]. Besides, the TGI is 10.3 µM in experiment [7], 11.7 µM in experiment [8], 11.9 µM in experiment [9] and above 100 µM in experiment [10].

In the case of `O=C(Nc1ccccc1Cl)c1ccc(NC2=C(Cl)C(=O)N(C3CCCCC3)C2=O)cc1`, the GI50 in experiment [1] is 22.9 µM; in experiment [2] it was 9.82 µM; in experiment [3], 18.7 µM; in experiment [4] it was 10.8 µM; in experiment [5] it was 20.5 µM; in experiment [6], 24.3 µM. The GI50 is 3.55 µM in experiment [7], 1.68 µM in experiment [8], 11.7 µM in experiment [9] and 19.7 µM in experiment [10]. Also, the TGI was 56.5 µM in experiment [1]; 36 µM in [2]; 38.3 µM in experiment [3]; 30 µM in experiment [4]; 51.2 µM in [5]; 53.1 µM in experiment [6]. Further, the TGI in experiment [7] amounted to 6.05 µM; in experiment [8] it was 20.9 µM; in [9], 42.1 µM; in experiment [10], 52.1 µM.

In the case of `Cc1ccc(-c2nc(/C=N/Nc3cc(C)nc4ccc(Br)cc34)c(C)o2)cc1`, the GI50 in experiment [1] was 1.73 µM; in experiment [2], 1.92 µM; in experiment [3], 2.03 µM; in [4] it was 1.92 µM; in experiment [5], 2.05 µM; in experiment [6], 9.51 µM. Besides, the GI50 in experiment [7] is 1.74 µM; in experiment [8] it was 1.88 µM; in [9] it was 1.89 µM; in experiment [10], 1.94 µM. In addition, the TGI in experiment [1] came to 3.12 µM; in experiment [2], 3.99 µM; in [3], 3.97 µM; in experiment [4] it was 3.82 µM; in experiment [5], 3.62 µM; in experiment [6], 21.4 µM. Also, the TGI turned out to be 3.28 µM in experiment [7], 3.57 µM in experiment [8], 3.63 µM in [9] and 3.73 µM in [10].

Consider `O=C1/C(=C/c2ccc(F)cc2)CN(C(=O)C(Cl)Cl)C/C1=C\c1ccc(F)cc1`, for which the GI50 was 0.309 µM in experiment [1]; 0.112 µM in [2]; 0.353 µM in [3]; 0.181 µM in experiment [4]; 0.212 µM in experiment [5]; 0.393 µM in experiment [6]. In addition, the GI50 in [7] was 0.178 µM; in experiment [8], 0.0346 µM; in experiment [9], 0.249 µM; in experiment [10] it was 0.294 µM. Besides, the TGI in [1] amounted to 1.08 µM; in experiment [2], 1.09 µM; in experiment [3] it was 1.42 µM; in experiment [5], 0.528 µM; in [6] it was 1.46 µM; in [7], 0.351 µM. For the same compound, the TGI worked out at 0.0974 µM in experiment [8], 0.758 µM in experiment [9] and 0.878 µM in [10].

Turning to `CCN1C(=O)N(CC)C2C1NN=c1s/c(=C\c3ccc(C(F)(F)F)cc3)c(=O)n12` (centres undefined), the GI50 in experiment [1] is 0.328 µM; in experiment [2] it was 0.338 µM; in experiment [3], 0.256 µM; in experiment [4], 0.352 µM; in experiment [5], 1.3 µM; in experiment [6], 0.521 µM. For the same compound, the GI50 in [7] was 0.354 µM; in experiment [8] it was 0.483 µM; in experiment [9] it was 0.311 µM; in experiment [10], 0.365 µM. In addition, the TGI is 36.4 µM in [1]; above 40 µM in [2]; 0.888 µM in experiment [3]; 11.8 µM in [4]; above 47.2 µM in [5]; above 56.2 µM in [6]. The TGI was 11.6 µM in [7], above 34.6 µM in [8], above 36.1 µM in [9] and 10.9 µM in experiment [10].

With `Cc1ccc2[nH]c(O)c(N=Nc3ccccc3[N+](=O)[O-])c2c1`, the TGI in experiment [1] was above 100 µM; in [2] it was above 100 µM; in [3], above 100 µM; in experiment [4] it was above 100 µM; in [5], 7.9 µM; in experiment [6], 57.3 µM. The TGI in [7], in experiment [8], in [9] and in experiment [10] was above 100 µM each time.

For the compound `COc1cc2c(/C=C3/C(=O)Nc4ccc(O)cc43)c(Cl)n(Cc3cc(OC)c(OC)c(OC)c3)c2cc1C`, the GI50 was 2.25 µM in [1]; 0.776 µM in [2]; 2.61 µM in experiment [3]; 1.71 µM in experiment [4]; 0.494 µM in experiment [5]; 2.69 µM in experiment [6]. In addition, the GI50 in experiment [7] is 3.3 µM; in experiment [8], 2.05 µM; in experiment [9], 1.93 µM; in experiment [10], 1.86 µM. For the same compound, the TGI in experiment [1] is 15 µM; in [2], 19.7 µM; in [3], above 100 µM; in [4], above 55.9 µM; in experiment [5], 3.91 µM; in [6], above 38.5 µM. Besides, the TGI is above 36.1 µM in experiment [7], 16.3 µM in [8], 51 µM in experiment [9] and above 32.7 µM in experiment [10].

Take `Cc1c[nH]c(=O)n(Cc2nnc(CCC(=O)c3nc4ccccc4[nH]3)o2)c1=O`: the GI50 in [1] was 7.22 µM; in experiment [2] it was 0.205 µM; in [3], 0.299 µM; in [4], 0.194 µM; in experiment [5] it was 1.14 µM; in experiment [6], 1.51 µM. Besides, the GI50 was 0.421 µM in experiment [7], 0.439 µM in experiment [8], 0.492 µM in [9] and 0.387 µM in experiment [10]. Further, the TGI is above 100 µM in experiment [1]; above 100 µM in experiment [2]; 1.04 µM in experiment [3]; above 43.1 µM in experiment [4]; above 100 µM in experiment [5]; above 100 µM in experiment [6]. Moreover, the TGI in experiment [7] was 7.14 µM; in [8] it was above 100 µM; in [9], 3.12 µM; in [10], above 43.1 µM.

For `COc1ccccc1NC(=O)CC(=O)n1nc(C)c(N=Nc2ccccc2Cl)c1C`, the TGI in experiment [1], in [2], in experiment [3], in experiment [4], in experiment [5] and in [6] was above 100 µM throughout. In addition, the TGI in [7], in experiment [8], in experiment [9] and in experiment [10] was above 100 µM throughout.

`NNc1nc2ccccc2o1`: the TGI in [1], in experiment [2], in experiment [3], in [4], in [5] and in [6] was above 100 µM each time. Further, the TGI in experiment [7], in experiment [8], in [9] and in experiment [10] was above 100 µM throughout.

With `CC(=O)Nc1ccc(OC(C)=O)cc1`, the GI50 in experiment [1] was 0.084 µM; in experiment [2], below 0.01 µM; in [3], below 0.01 µM; in experiment [4], below 0.01 µM; in experiment [5] it was 0.668 µM; in [6] it was 3 µM. In addition, the GI50 in experiment [7] is below 0.0117 µM; in [8] it was below 0.01 µM; in experiment [9], below 0.01 µM; in experiment [10], below 0.01 µM. The TGI in experiment [1] is 28.8 µM; in [2] it was above 74.4 µM; in experiment [3], 0.01 µM; in experiment [4], 0.776 µM; in experiment [5], 24.5 µM; in [6], above 78.7 µM. In addition, the TGI in [7] is 0.327 µM; in [8], 4.14 µM; in [9], 3.32 µM; in experiment [10], 16.9 µM.

The values are drawn from PubChem BioAssay (NCI).
